Measurements taken from patent US8124381B2, “Process and materials for production of glucosamine and N-acetylglucosamine” (Arkion Life Sciences, priority 2002, dated 2012).

Key:
[1] = target: T1, E. coli glucosamine synthase GlmS*54 (Escherichia coli, UniProt P17169, A39T/G472S/R250C); assay: Effects of phosphorylated sugars on glucosamine synthase; type: biochemical
T1 construct: made in house; host or cells: E. coli 7107-18 (printed '7017-18'; T7-glmS*54 integrated at galK) and strains derived from it; crude extract
Experimental: Glucosamine synthetase activity was examined in the presence of various phosphorylated sugars. Crude enzyme extracts was prepared from cells of 7017-18 grown in shake flasks for 24 hours with lactose induction.

[2] = substrate: O=P(O)(O)OC[C@H]1OC(O)(CO)[C@@H](O)[C@@H]1O; assay: GlmS inhibition and Michaelis-Menten kinetics; type: biochemical, Escherichia coli
Experimental: Different glucosamine synthetase enzymes, including native B. subtillus GlmS, native E. coli GlmS and mutant E. coli GlmS, were studied in vitro. Cells of various E. coli strains were grown in the M9A medium, harvested, and frozen. Cells extracts were prepared and the glucosamine synthetases were characterized and compared.
Enzyme sensitivities to the reaction product glucosamine-6-P were examined. […] This figure highlights the dramatic difference between the wild type GlmS and these mutant GlmS strains.
The Mutants 2123-54 and the B. subtilis enzyme have higher Ki values (Table 6). Measured Ki constants for several of these mutants are 4 to 8 times the value for the native enzyme in strain 2123-12. From shake flask studies it is apparent that decreased sensitivity to glucosamine-6-P allows higher glucosamine levels to accumulate.
These values are slightly higher than those obtained with the native enzyme.

T1 sequence (P17169 2-609 A39T/R250C/G472S): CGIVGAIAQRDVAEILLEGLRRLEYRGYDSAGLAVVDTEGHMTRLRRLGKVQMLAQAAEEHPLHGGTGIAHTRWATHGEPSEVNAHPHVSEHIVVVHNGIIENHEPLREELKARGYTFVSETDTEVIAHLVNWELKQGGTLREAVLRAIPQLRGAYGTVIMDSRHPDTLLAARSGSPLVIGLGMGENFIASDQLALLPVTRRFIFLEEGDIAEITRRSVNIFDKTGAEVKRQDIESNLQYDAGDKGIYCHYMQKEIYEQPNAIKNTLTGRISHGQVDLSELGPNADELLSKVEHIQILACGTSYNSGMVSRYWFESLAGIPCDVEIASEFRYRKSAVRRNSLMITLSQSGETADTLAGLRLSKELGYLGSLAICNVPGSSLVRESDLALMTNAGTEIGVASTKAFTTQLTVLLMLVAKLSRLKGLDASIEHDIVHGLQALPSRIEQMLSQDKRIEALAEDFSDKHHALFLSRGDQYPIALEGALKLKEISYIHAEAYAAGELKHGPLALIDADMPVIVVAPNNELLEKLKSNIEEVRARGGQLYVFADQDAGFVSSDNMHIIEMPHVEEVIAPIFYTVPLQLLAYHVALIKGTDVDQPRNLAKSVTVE

Molecule | activity at 10000 µM [1] [%] | inhibition of glucosamine synthetase (in words) [1] | Km [2] [µM]
N[C@H]1C(OP(=O)(O)O)O[C@H](CO)[C@@H](O)[C@@H]1O (some centres unmarked) [glucosamine-1-P, glucosamine-1-phosphate] | 79 | inhibited | 
CC(=O)N[C@H]1C(OP(=O)(O)O)O[C@H](CO)[C@@H](O)[C@@H]1O (some centres unmarked) [N-acetylglucosamine-1-P, N-acetylglucosamine-1-phosphate] | 100 |  | 
E. coli GlmS mutant GlmS*124, SEQ ID NO:8 (Leu469Pro) (strain 2123-124) (Escherichia coli K-12; L469P) (protein, made in house; host or cells: E. coli strain 2123-124, cell extract) CGIVGAIAQRDVAEILLEGLRRLEYRGYDSAGLAVVDAEGHMTRLRRLGKVQMLAQAAEEHPLHGGTGIAHTRWATHGEPSEVNAHPHVSEHIVVVHNGIIENHEPLREELKARGYTFVSETDTEVIAHLVNWELKQGGTLREAVLRAIPQLRGAYGTVIMDSRHPDTLLAARSGSPLVIGLGMGENFIASDQLALLPVTRRFIFLEEGDIAEITRRSVNIFDKTGAEVKRQDIESNLQYDAGDKGIYRHYMQKEIYEQPNAIKNTLTGRISHGQVDLSELGPNADELLSKVEHIQILACGTSYNSGMVSRYWFESLAGIPCDVEIASEFRYRKSAVRRNSLMITLSQSGETADTLAGLRLSKELGYLGSLAICNVPGSSLVRESDLALMTNAGTEIGVASTKAFTTQLTVLLMLVAKLSRLKGLDASIEHDIVHGLQALPSRIEQMLSQDKRIEALAEDFSDKHHAPFLGRGDQYPIALEGALKLKEISYIHAEAYAAGELKHGPLALIDADMPVIVVAPNNELLEKLKSNIEEVRARGGQLYVFADQDAGFVSSDNMHIIEMPHVEEVIAPIFYTVPLQLLAYHVALIKGTDVDQPRNLAKSVTVE |  |  | 1100
E. coli GlmS mutant GlmS*72, SEQ ID NO:14 (Glu15Lys, Asp387Val, Ser450Pro, Glu525Gly) (strain 2123-72) (Escherichia coli K-12; D387V/E15K/E525G/S450P) (protein, made in house; host or cells: E. coli strain 2123-72 (from 7101-17(DE3), plasmid with glmS*72 integrated), cell extract) CGIVGAIAQRDVAKILLEGLRRLEYRGYDSAGLAVVDAEGHMTRLRRLGKVQMLAQAAEEHPLHGGTGIAHTRWATHGEPSEVNAHPHVSEHIVVVHNGIIENHEPLREELKARGYTFVSETDTEVIAHLVNWELKQGGTLREAVLRAIPQLRGAYGTVIMDSRHPDTLLAARSGSPLVIGLGMGENFIASDQLALLPVTRRFIFLEEGDIAEITRRSVNIFDKTGAEVKRQDIESNLQYDAGDKGIYRHYMQKEIYEQPNAIKNTLTGRISHGQVDLSELGPNADELLSKVEHIQILACGTSYNSGMVSRYWFESLAGIPCDVEIASEFRYRKSAVRRNSLMITLSQSGETADTLAGLRLSKELGYLGSLAICNVPGSSLVRESVLALMTNAGTEIGVASTKAFTTQLTVLLMLVAKLSRLKGLDASIEHDIVHGLQALPSRIEQMLPQDKRIEALAEDFSDKHHALFLGRGDQYPIALEGALKLKEISYIHAEAYAAGELKHGPLALIDADMPVIVVAPNNGLLEKLKSNIEEVRARGGQLYVFADQDAGFVSSDNMHIIEMPHVEEVIAPIFYTVPLQLLAYHVALIKGTDVDQPRNLAKSVTVE |  |  | 950
